In publication PMC9479156 (Frontiers in Pharmacology, 2022):

Tests used:
[1] = tested on: A549 human lung carcinoma; test: MTT cytotoxicity assay A549; assay type: cell-based; conditions: for IC50: Homo sapiens, A549, MTT, 72 h, ± SD, read-out: IC50 A549
Method: (§1) Proliferative and non-proliferative mammalian cell lines: human liver and lung cancer cell lines HepG2 and A549, and immortalized normal liver LO2 and lung BEAS-2B cells were purchased from ATCC (Manassas, VA, United States). Cells were cultured in RPMI-1640 medium supplemented with 10% fetal bovine serum and antibiotics penicillin (50 U/mL) and streptomycin (50 μg/ml; Invitrogen, United Kingdom). All cells were incubated at 37°C in a 5% humidified CO2 incubator.
(§2) All test compounds were dissolved in DMSO at a final concentration of 50 mM and stored at −20°C before use. Cytotoxicity was assessed with A549, HepG2, BEAS-2B and LO2 cells. The MTT assay with 3-(4,5-dimethylthiazole-2yl)-2,5-diphenyltetrazolium bromide (5 mg/ml) was performed as previously described ([Ng et al., 2022]). Briefly, 4 × 10^3 cells per well were seeded in 96-well plates before drug treatment. After overnight cell culture, the cells were exposed to different concentrations of selected compounds (0.19–100 μM) for 72 h. Cells without drug treatment were used as control. Next, 10 μl of the MTT solution was added to each well and incubated at 37°C for another 4 h. Solubilization buffer (100 μl) was then added (10 mM HCl in a solution of 10% of SDS) and incubated overnight. The absorbance A at 570 nm was measured on the next day. The percentage of cell viability was calculated using the following formula: Cell viability (%) = Atreated/Acontrol × 100. Dose response curves for all assays are given in the Supplementary Figures S3–S6.
(§3) Cytotoxicity was assessed for each of artemisinin, DHA and artemether, and the amino-artemisinins artemiside and artemisone, and celastrol against A549 human lung carcinoma, BEAS-2B non-tumorigenic human bronchial epithelium, HepG2 liver hepatocellular carcinoma and LO2 human normal hepatocytes using the MTT assay ([Ng et al., 2022]). Data are presented in Table 4, and dose response curves are given in the Supplementary Figures S3–S6.

[2] = tested on: LO2 human normal hepatocytes; test: MTT cytotoxicity assay LO2; assay type: cell-based; conditions: Hepatocyte, MTT, 72 h, ± SD, read-out: IC50 LO2
Method: as §1, §2, §3

[3] = tested on: immature stage II-III P. falciparum NF54 gametocytes; set-up: method as in Coertzen et al., 2018, Wong et al., 2019; conditions: ref Coertzen et al., 2018, Wong et al., 2019, cited from earlier work; for IC50: NF54 gametocytes, luciferase, 48 h, mean ± SEM, read-out: Immature stage II-III (luc 48 h) IC50; for Fold change preference ratio EG to LG: immature vs late stage gametocytes
[4] = tested on: HepG2 liver hepatocellular carcinoma; test: MTT cytotoxicity assay HepG2; assay type: cell-based, human; conditions: for IC50: Homo sapiens, HepG2, MTT, 72 h, ± SD, read-out: IC50 HepG2; for SI, selectivity index IC50 normal cell line/IC50 tumour cell line: LO2/HepG2
Method: as §1, §2, §3

[5] = tested on: BEAS-2B non-tumorigenic human bronchial epithelium; test: MTT cytotoxicity assay BEAS-2B; assay type: cell-based; conditions: MTT, 72 h, ± SD, read-out: IC50 BEAS-2B
Method: as §1, §2, §3

[6] = tested on: asexual blood stage P. falciparum W2 (multidrug resistant); set-up: method as in Coertzen et al., 2018; Wong et al., 2019; conditions: ref Coertzen et al., 2018, Wong et al., 2019, cited from earlier work; for IC50: asexual blood stage, SYBR Green I, mean ± SEM
[7] = tested on: late stage IV-V P. falciparum NF54 gametocytes; set-up: method as in Coertzen et al., 2018, Wong et al., 2019; conditions: ref Coertzen et al., 2018, Wong et al., 2019, cited from earlier work; for IC50: NF54 gametocytes, luciferase, 72 h, mean ± SEM, read-out: Late stage IV-V (luc 72 h) IC50; for Fold change preference ratio LG to EG: late vs immature stage gametocytes
[8] = tested on: HepG2 liver hepatocellular carcinoma; test: Cytotoxicity drug combination (isobole) assay HepG2; assay type: cell-based, human
Method: (§4) For the drug combination inhibitory assays, six drug preparations, of which four comprised combinations of either artemiside or artemisone with celastrol in a fixed ratio of 80:20, 60:40, 40:60, and 20:80 were prepared and screened against HepG2 liver hepatocellular carcinoma and LO2 human normal hepatocytes respectively. Two of these six preparations employed each of artemiside, artemisone or celastrol alone at a concentration approximately 5–7 times higher than the IC50 of the individual drug as presented in Table 4. […] Thus, six combinations for artemiside (µM) and celastrol (µM) prepared were 500:0, 400:4, 300:8, 200:12, 100:16, and 0:20, respectively.
(§5) As above for the malaria combination assays, a mean ΣFIC<1.0 represents a synergistic interaction, >1.3 represents an antagonistic interaction and ΣFIC = 1 represents an indifferent or additive interaction. Additivity, synergism and antagonism were also be established from the linear plots constructed from the FIC values of each of the drugs. A concave hyperbolic plot indicates synergism, a convex hyperbolic plot indicates an antagonistic interaction, and a straight line indicates an additive interaction. Isobole analysis of the combinations of each of artemiside and artemisone in combination with celastrol was performed against HepG2 and LO2 cells respectively. In Figure 5 is presented the isoboles for each drug combination.
(§6) Next, combinations of each of artemiside and artemisone with celastrol were examined, according to the method used to establish additivity/synergism described above. […] Against the normal hepatocyte LO2 cell line, whilst the interaction of artemisone with celastrol was synergistic, that of artemiside was additive. Synergism and additivity were also evident from the linear plots determined from the FIC values of each of the drugs (Table 5 and Figure 6). Thus, synergism is confirmed for combinations of the amino-artemisinins with celastrol against the HepG2 carcinoma cell line, and for artemisone-celastrol against human normal hepatocyte LO2.

[9] = tested on: LO2 human normal hepatocytes; test: Cytotoxicity drug combination (isobole) assay LO2; assay type: cell-based
Method: as §4, §5, §6

[10] = tested on: asexual blood stage P. falciparum NF54 (drug sensitive); set-up: method as in Coertzen et al., 2018; Wong et al., 2019; conditions: SYBR Green I, mean ± SEM, ref Coertzen et al., 2018, Wong et al., 2019; cited from earlier work
[11] = tested on: asexual blood stage P. falciparum K1 (multidrug resistant); conditions: ref Coertzen et al., 2018, Wong et al., 2019, cited from earlier work; for IC50: asexual blood stage, SYBR Green I, mean ± SEM

SMILES | IC50 [1] [nM] | IC50 [2] [nM] | IC50 [3] [nM] | Fold change preference ratio EG to LG [3] | IC50 [4] [nM] | SI, selectivity index IC50 normal cell line/IC50 tumour cell line [4] | IC50 [5] [nM] | IC50 [6] [nM] | RI = IC50 W2/IC50 NF54 [6] | IC50 [7] [nM] | Fold change preference ratio LG to EG [7] | IC50 [10] [nM] | IC50 [11] [nM] | RI (resistance index) = IC50 K1/IC50 NF54 [11] | also measured
C[C@H]1[C@H](N2CCSCC2)O[C@@H]2O[C@@]3(C)CC[C@H]4[C@H](C)CC[C@@H]1[C@@]24OO3 [Artemiside, artemiside] | > 100000 | > 100000 | 16.4 ± 1 | 0.09 | 550 ± 20 | >183 | 32100 ± 2700 | 1.75 ± 0.27 | 1.58 | 1.5 ± 0.5 | 10.9 | 1.11 ± 0.17 | 1.6 ± 0.4 | 1.47 | SI, selectivity index IC50 normal cell line/IC50 tumour cell line ([1]; BEAS-2B/A549): <0.3; SI, selectivity index IC50 normal cell line/IC50 tumour cell line ([4]; listed as artemiside): > 170; FIC ([8]; artemiside:celastrol drug ratio 20:80, HepG2): 0.16; FIC ([8]; artemiside:celastrol drug ratio 40:60, HepG2): 0.42; FIC ([8]; artemiside:celastrol drug ratio 60:40, HepG2): 0.4; FIC ([8]; artemiside:celastrol drug ratio 80:20, HepG2): 0.57; FIC ([9]; artemiside:celastrol drug ratio 20:80, LO2): 0.09; FIC ([9]; artemiside:celastrol drug ratio 40:60, LO2): 0.33; FIC ([9]; artemiside:celastrol drug ratio 60:40, LO2): 0.45; FIC ([9]; artemiside:celastrol drug ratio 80:20, LO2): 0.59
C[C@H]1[C@H](OC(=O)CCC(=O)O)O[C@@H]2O[C@@]3(C)CC[C@H]4[C@H](C)CC[C@@H]1[C@@]24OO3 [Artesunate, artesunate] |  |  | 62.8 ± 3 |  |  |  |  | 2.4 ± 0.4 |  | 259 ± 80 |  | 3 ± 0.29 | 4 ± 1 |  | 
C[C@@H]1CC[C@H]2[C@@H](C)C(O)O[C@@H]3O[C@@]4(C)CC[C@@H]1[C@]32OO4 (stereo partly drawn) [DHA] | 62600 ± 3400 | 30700 ± 2200 | 43 ± 3.9 | 0.78 | > 100000 |  | 21200 ± 1400 | 1.74 ± 0.22 | 0.7 | 33.7 ± 1.98 | 1.3 | 2.51 ± 0.19 | 1.51 ± 0.33 | 0.6 | 
C[C@@H]1CC[C@H]2[C@@H](C)C(=O)O[C@@H]3O[C@@]4(C)CC[C@@H]1[C@]32OO4 [Artemisinin, artemisinin, reference compound] | > 100000 | > 100000 |  |  | > 100000 |  | > 100000 |  |  |  |  |  |  |  | 
CO[C@H]1O[C@@H]2O[C@@]3(C)CC[C@H]4[C@H](C)CC[C@@H]([C@H]1C)[C@@]24OO3 [Artemether, artemether] | > 100000 | > 100000 | 37.7 ± 2 | 3.6 | 1020 ± 200 | >98 | > 100000 | 7 ± 1 | 3.8 | 136 ± 85.9 | 0.28 | 1.86 ± 0.17 | 9 ± 2 | 4.8 | 
